Experimental data as given in ChEMBL document CHEMBL5506022, “Discovery of Novel Dual Inhibitors Targeting Mutant IDH1 and NAMPT for the Treatment of Glioma with IDH1Mutation” (J Med Chem, 2024).
Active and inactive are the calls of the source. The calls are words filed in the database; no cut-off is given here.

Assays:
[1] = target: Isocitrate dehydrogenase [NADP] cytoplasmic (Homo sapiens, UniProt O75874, R132C); assay: Inhibition of recombinant IDH1 R132C mutant (unknown origin) using alpha-ketoglutarate as substrate incubated for 60 mins in presence of NADPH by fluorescence microplate reader
Chain of Isocitrate dehydrogenase [NADP] cytoplasmic (Homo sapiens, UniProt O75874, R132C) (O75874 2-414 R132C limits assumed): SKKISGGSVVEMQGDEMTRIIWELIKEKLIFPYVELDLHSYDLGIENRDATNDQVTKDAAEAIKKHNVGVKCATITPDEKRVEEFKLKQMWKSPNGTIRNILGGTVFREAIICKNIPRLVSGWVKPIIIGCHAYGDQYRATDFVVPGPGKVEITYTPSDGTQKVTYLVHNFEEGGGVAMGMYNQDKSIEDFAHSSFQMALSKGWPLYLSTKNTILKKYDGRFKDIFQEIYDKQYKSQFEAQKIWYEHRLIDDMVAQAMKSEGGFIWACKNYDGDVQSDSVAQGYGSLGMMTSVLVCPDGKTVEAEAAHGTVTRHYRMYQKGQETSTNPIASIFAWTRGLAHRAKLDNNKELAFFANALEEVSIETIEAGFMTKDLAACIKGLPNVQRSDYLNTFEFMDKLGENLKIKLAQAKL

[2] = target: Isocitrate dehydrogenase [NADP] cytoplasmic (Homo sapiens, UniProt O75874); assay: Inhibition of wildtype IDH1 (unknown origin) using DL-isocitrate as substrate incubated for 60 mins in presence of NADP by fluorescence microplate reader
Chain of Isocitrate dehydrogenase [NADP] cytoplasmic (Homo sapiens, UniProt O75874) (O75874 whole entry): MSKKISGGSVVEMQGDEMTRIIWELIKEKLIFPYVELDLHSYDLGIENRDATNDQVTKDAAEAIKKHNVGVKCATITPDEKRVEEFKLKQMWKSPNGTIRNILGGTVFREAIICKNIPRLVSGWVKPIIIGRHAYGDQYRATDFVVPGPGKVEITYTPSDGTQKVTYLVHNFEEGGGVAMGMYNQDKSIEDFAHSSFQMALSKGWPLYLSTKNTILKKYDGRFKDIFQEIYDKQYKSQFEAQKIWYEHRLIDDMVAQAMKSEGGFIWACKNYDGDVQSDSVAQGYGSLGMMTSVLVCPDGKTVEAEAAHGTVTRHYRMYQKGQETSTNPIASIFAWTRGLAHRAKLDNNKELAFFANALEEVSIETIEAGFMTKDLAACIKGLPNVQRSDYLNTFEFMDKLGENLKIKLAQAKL

[3] = target: Nicotinamide phosphoribosyltransferase (Homo sapiens, UniProt P43490)
Chain of Nicotinamide phosphoribosyltransferase (P43490 whole entry): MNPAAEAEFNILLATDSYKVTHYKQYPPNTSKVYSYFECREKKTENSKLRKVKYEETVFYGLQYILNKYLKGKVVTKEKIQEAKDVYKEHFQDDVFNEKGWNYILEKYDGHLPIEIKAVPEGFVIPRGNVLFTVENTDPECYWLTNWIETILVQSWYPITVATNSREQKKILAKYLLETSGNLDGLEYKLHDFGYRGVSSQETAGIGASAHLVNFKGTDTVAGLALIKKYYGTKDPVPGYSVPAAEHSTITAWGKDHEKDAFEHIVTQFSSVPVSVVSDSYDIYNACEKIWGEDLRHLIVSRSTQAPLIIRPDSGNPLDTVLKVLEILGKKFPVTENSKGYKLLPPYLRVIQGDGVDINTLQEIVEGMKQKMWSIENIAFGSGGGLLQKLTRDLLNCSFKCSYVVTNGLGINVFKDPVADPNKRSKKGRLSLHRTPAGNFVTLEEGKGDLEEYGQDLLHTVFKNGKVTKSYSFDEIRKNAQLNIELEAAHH

U-87 MG [4] = assay: Antiproliferative activity against human U-87 MG cells harboring wildtype IDH1 assessed as inhibition of cell growth incubated for 24 hrs by CCK8 assay; assay type: functional, cell-based, U-87MG ATCC
U-87 MG [5] = assay: Antiproliferative activity against human U-87 MG cells harboring wildtype IDH1 assessed as inhibition of cell growth incubated for 48 hrs by CCK8 assay; assay type: functional, cell-based, U-87MG ATCC
U-87 MG [6] = assay: Antiproliferative activity against human U-87 MG cells harboring wildtype IDH1 assessed as inhibition of cell growth incubated for 72 hrs by CCK8 assay; assay type: functional, cell-based, U-87MG ATCC
U-87 MG [7] = assay type: functional, cell-based, U-87MG ATCC; conditions: Homo sapiens, 24 h
U-87 MG [8] = assay type: functional, cell-based, U-87MG ATCC; conditions: Homo sapiens, 48 h
U-87 MG [9] = assay type: functional, cell-based, U-87MG ATCC; conditions: Homo sapiens, 72 h
U-87 MG [10] = assay: Synergistic antiproliferative activity against human U-87 MG cells harboring wildtype IDH1 assessed as inhibition of cell growth incubated for 48 hrs in presence of AG-120 by CCK8 assay; assay type: functional, cell-based, U-87MG ATCC
U-87 MG [11] = assay: Synergistic antiproliferative activity against human U-87 MG cells harboring wildtype IDH1 assessed as inhibition of cell growth incubated for 48 hrs in presence of IDH305 by CCK8 assay; assay type: functional, cell-based, U-87MG ATCC
U-87 MG [12] = assay type: functional, cell-based, U-87MG ATCC; conditions: Homo sapiens, 48 h; remark: listed apart in the source
U-87 MG [13] = assay type: functional, cell-based, U-87MG ATCC; conditions: Homo sapiens, 48 h; remark: listed apart in the source
U-87MG ATCC [14] = assay: Effect on intracellular NADP+ level in human U-87 MG cells harboring wildtype IDH1; assay type: functional, cell-based
U-87MG ATCC [15] = assay type: functional, cell-based; conditions: Homo sapiens, dose 0.5 µM, time 48.0 hrs
U-87 MG [16] = assay type: functional, organism-based; conditions: Homo sapiens; U-87MG ATCC; dose 30.0 mg/kg, route ip, time 35.0 day
U-87 MG [17] = assay: cells; conditions: Homo sapiens, 48 h, read-out: Activity
U-87 MG [18] = assay: cells; conditions: Homo sapiens, 48 h, read-out: Activity; remark: listed apart in the source
U-87 MG [19] = assay: Synergistic antiproliferative activity against human U-87 MG cells harboring wildtype IDH1 assessed as inhibition of cell growth incubated for 48 hrs in presence of FK866 by CCK8 assay; assay type: functional, cell-based, U-87MG ATCC
U-87 MG [20] = assay type: functional, cell-based, U-87MG ATCC; conditions: Homo sapiens, 48 h; remark: listed apart in the source
U-87 MG [21] = assay: Synergistic antiproliferative activity against human U-87 MG cells harboring wildtype IDH1 assessed as combination index incubated for 48 hrs in presence of FK866 by CCK8 assay; assay type: functional, U-87MG ATCC
U-87 MG [22] = assay type: functional, Homo sapiens, U-87MG ATCC; conditions: time 48 hrs
U-87 MG [23] = assay type: functional, Homo sapiens, U-87MG ATCC; conditions: time 48 hrs; remark: listed apart in the source
U-87 MG [24] = assay type: functional, U-87MG ATCC; conditions: Homo sapiens, time 48 hrs, read-out: Activity
U-87 MG [25] = assay type: functional, Homo sapiens, U-87MG ATCC; conditions: dose 1 µM; time 48 hrs
U-87 MG [26] = assay type: functional, Homo sapiens, U-87MG ATCC; conditions: dose 1 µM; time 48 hrs; remark: listed apart in the source
U-87 MG [27] = assay type: functional, Homo sapiens, U-87MG ATCC; conditions: dose 1 µM; time 48 hrs; remark: listed apart in the source

CC(C)[C@H]1COC(=O)N1c1ccnc(N[C@@H](C)c2ccc(-c3ccc(NC(=O)c4cc5cnccc5[nH]4)cc3)cc2)n1
IC50 [1]: 171 nM
IC50 [2]: 9160 nM
IC50 [3]: 127 nM

CC(C)[C@H]1COC(=O)N1c1ccnc(N[C@@H](C)c2ccc(-c3ccc(NC(=O)COc4cccnc4)cc3)cc2)n1
IC50 [1]: 114 nM
IC50 [2]: 8520 nM
IC50 (U-87 MG [4]): 1020 nM
IC50 (U-87 MG [5]): 890 nM
IC50 (U-87 MG [6]): 540 nM
IC50 (U-87 MG [7]): 1660 nM
IC50 (U-87 MG [8]): 1180 nM
IC50 (U-87 MG [9]): 570 nM
IC50 [3]: 33.1 nM

O=C(/C=C/c1cccnc1)NCCCCC1CCN(C(=O)c2ccccc2)CC1 [DAPORINAD]
IC50 (U-87 MG [4]): 5460 nM
IC50 (U-87 MG [5]): 2550 nM
IC50 (U-87 MG [6]): 1630 nM
IC50 (U-87 MG [7]): 1040 nM
IC50 (U-87 MG [8]): 970 nM
IC50 (U-87 MG [9]): 410 nM
IC50 (U-87 MG [10]): 2510 nM
IC50 (U-87 MG [11]): 1690 nM
IC50 (U-87 MG [12]): 560 nM
IC50 (U-87 MG [13]): 450 nM
Activity (U-87MG ATCC [14]): inactive
Activity (U-87MG ATCC [15]): inactive
Activity (U-87 MG [16]): Active
viability at 1 µM (U-87 MG [17]): 40.8%
viability at 1 µM (U-87 MG [18]): 27.8%

C[C@H](Nc1nccc(N2C(=O)OC[C@@H]2Cc2ccccc2)n1)c1ccc(-c2ccc(NC(=O)COc3cccnc3)cc2)cc1
IC50 [1]: 294 nM
IC50 [2]: 35900 nM
IC50 [3]: 65.4 nM

C[C@H](Nc1nccc(N2C(=O)OC[C@@H]2[C@@H](C)O)n1)c1ccc(-c2ccc(NC(=O)/C=C/c3cccnc3)cc2)cc1
IC50 [1]: 57 nM
IC50 [2]: 6460 nM
IC50 [3]: 32.6 nM

C[C@H](Nc1nccc(N2C(=O)OC[C@@H]2[C@H](C)F)n1)c1ccc(-c2ccc(NC(=O)/C=C/c3cccnc3)cc2)cn1
IC50 [1]: 342 nM
IC50 [2]: 14000 nM
IC50 [3]: 53.2 nM

C[C@H](Nc1nccc(N2C(=O)OC[C@@H]2[C@H](C)F)n1)c1ccc(-c2ccc(NC(=O)c3ccc4nccn4c3)cc2)cn1
IC50 [1]: 369 nM
IC50 [2]: 26100 nM
IC50 [3]: 24.3 nM

C[C@H](Nc1nccc(N2C(=O)OC[C@@H]2[C@H](C)F)n1)c1ccc(-c2ccc(NC(=O)COc3cccnc3)cc2)cn1
IC50 [1]: 419 nM
IC50 [2]: 21100 nM
IC50 [3]: 32.2 nM

N#Cc1ccnc(N2C(=O)CC[C@H]2C(=O)N(c2cncc(F)c2)[C@H](C(=O)NC2CC(F)(F)C2)c2ccccc2Cl)c1 [IVOSIDENIB]
IC50 (U-87 MG [4]): 100000 nM
IC50 (U-87 MG [5]): 89300 nM
IC50 (U-87 MG [6]): 67200 nM
IC50 (U-87 MG [7]): 3060 nM
IC50 (U-87 MG [8]): 1020 nM
IC50 (U-87 MG [9]): 980 nM
IC50 (U-87 MG [19]): 2510 nM
IC50 (U-87 MG [20]): 560 nM
CI (U-87 MG [21]): 0.78
CI (U-87 MG [22]): 0.88
CI (U-87 MG [23]): 0.88
viability at 1 µM (U-87 MG [24]): 27.8%
Activity (U-87 MG [25]): 49.6%
Activity (U-87 MG [26]): 18%
Activity (U-87 MG [27]): 4.59%
viability at 1 µM (U-87 MG [17]): 37.8%

C[C@H](Nc1nccc(N2C(=O)OC[C@@H]2[C@@H](C)OC(C)(C)C)n1)c1ccc(-c2ccc(NC(=O)c3ccc4nccn4c3)cc2)cc1
IC50 [1]: 57 nM
IC50 [2]: 5790 nM
IC50 [3]: 12.6 nM

CC(C)[C@H]1COC(=O)N1c1ccnc(N[C@@H](C)c2ccc(-c3ccc(NC(=O)c4cnccn4)cc3)cc2)n1
IC50 [1]: 579 nM
IC50 [2]: 19700 nM
IC50 [3]: 241 nM

CC(C)[C@H]1COC(=O)N1c1ccnc(N[C@@H](C)c2ccc(NC(=O)C3CCN(C(=O)/C=C/c4cccnc4)C3)cc2)n1 (stereo not given in full)
IC50 [1]: 430 nM
IC50 [2]: 3710 nM
IC50 [3]: 54.1 nM

C[C@H](Nc1nccc(N2C(=O)OC[C@@H]2[C@@H](C)O)n1)c1ccc(-c2ccc(NC(=O)c3ccc4nccn4c3)cc2)cc1
IC50 [1]: 102 nM
IC50 [2]: 15700 nM
IC50 [3]: 24.8 nM

CC(C)[C@H]1COC(=O)N1c1ccnc(N[C@@H](C)c2ccc(-c3ccc(NC(=O)c4ccc5nccn5c4)cc3)cc2)n1
IC50 [1]: 73.2 nM
IC50 [2]: 9160 nM
IC50 (U-87 MG [4]): 2660 nM
IC50 (U-87 MG [5]): 1210 nM
IC50 (U-87 MG [6]): 3260 nM
IC50 (U-87 MG [7]): 3110 nM
IC50 (U-87 MG [8]): 3260 nM
IC50 (U-87 MG [9]): 1460 nM
IC50 [3]: 193 nM

C[C@H](Nc1nccc(N2C(=O)OC[C@@H]2Cc2ccccc2)n1)c1ccc(-c2ccc(NC(=O)c3ccc4nccn4c3)cc2)cc1
IC50 [1]: 77.4 nM
IC50 [2]: 9740 nM
IC50 [3]: 58.1 nM

CC(C)[C@H]1COC(=O)N1c1ccnc(N[C@@H](C)c2ccc(NC(=O)CCCCNC(=O)/C=C/c3cccnc3)cc2)n1
IC50 [1]: 405 nM
IC50 [2]: 6180 nM
IC50 [3]: 25.5 nM
